Results on ten compounds are retold here after patent publication US20250034182A1, “PHOSPHOLIPID COMPOUNDS AND METHODS OF MAKING AND USING THE SAME” (priority 2021, published 2025).

Where only a bound is given, the exact number is not on record here.

Assay type in all cases: cell-based
Data set [1] is described as follows: RSV NHBE CC50 384 V2 (per Ex. U). The settings on record: human.
For data set [2], the system named is Respiratory syncytial virus recombinant with luciferase (RSV-Luc5) in NHBE cells. Kind of data set: NHBE RSV-Luc5 384-well assay (EC50 RSVFLUC NHBE-384, Example U). The settings on record: human respiratory syncytial virus, 72 h, read-out: RSV FLuc NHBE 384 EC50 (v2) (nM) (per Ex. U). On the procedure: Normal Human Bronchial Epithelial (NHBE) cells were purchased from Lonza (Walkersville, MD Cat #CC2540) and maintained in BEGM Bronchial Epithelial Cell (Growth Medium BulletKit (Lonza CC-3170).
Cells were thawed, expanded, and were used for experiments at passage 2. Respiratory syncytial virus recombinant with luciferase (RSV-Luc5) (≥1×10^7 Infectious Units/ml (IU/ml) determined by TCID50) was purchased from Microbiologics (Saint Cloud, MN). Viral replication was determined in NHBE cells in the following manner.
(§1) Compounds are prepared in 100% DMSO in 384-well polypropylene plates (Greiner, Monroe, NC, Cat #784201) with 8 compounds per plate in grouped replicates of 4 at 10 serially diluted concentrations (1:3). The serially diluted compounds were transferred to low dead volume Echo plates (Labcyte, Sunnyvale, CA, Cat #LP-0200).
The test compounds were spotted to 384-well assay plates (Greiner, Monroe, NC, Cat #781091) at 200 nL per well. NHBE cells were harvested and suspended in BEGM Bronchial Epithelial Cell Growth Medium BulletKit and seeded to the pre-spotted assay plates at 5,000 cells per well in 30 μL. RSV-Luc5 virus was diluted in BEGM Bronchial Epithelial Cell Growth Medium BulletKit at 500,000 Infectious Units (IU) per mL and 10 μL per well was added to the assay plates containing cells and compounds, for an MOI of 1. The assay plates were incubated for 3 days at 37° C. and 5% CO2. At the end of incubation, One-Glo reagent (Promega, Madison, WI, Cat #E6120) was prepared. The assay plates and One-Glo reagent were equilibrated to room temperature for at least 15 minutes. 40 μL per well of One-Glo reagent was added and the plates were incubated at room temperature for 15 minutes before reading the luminescence signal on an EnVision multimode plate reader (Perkin Elmer, Waltham, MA). Remdesivir was used as positive control and DMSO was used as negative control. Values were normalized to the positive and negative controls (as 0% and 100% replication, respectively) and data was fitted using non-linear regression analysis by Gilead's dose response tool. The EC50 value for each compound was defined as the concentration reducing the viral replication by 50%.

Data set [3] can be described thus: RSV HEP2-CC50-384-V2 (per Ex. V). The settings on record: human.
Data set [4] has as its system Respiratory syncytial virus recombinant with luciferase (RSV-Luc5) in HEp-2 cells. Kind of data set: HEp-2 RSV-Luc5 384-well assay (EC50 RSVFLUC Hep2-384 v2, Example V). The settings on record: human respiratory syncytial virus, HEp-2, 72 h, read-out: RSV Hep-2 FLuc EC50 (v2) (nM) (per Ex. V).
Description: HEp-2 cell line was purchased from ATCC (Manassas, VA Cat #CCL-23) and maintained in Dulbecco's […] (DMEM) (Corning, New York, NY, Cat #15-018CM) supplemented with 10% fetal bovine serum (FBS) (Hyclone, Logan, UT, Cat #SH30071-03) and 1× Penicillin-Streptonycin-L-Glutamine (Corning, New York, NY, Cat #30-009-CI). Cells were passaged 2 times per week to maintain sub-confluent densities and were used for experiments at passage 5-20. Respiratory syncytial virus recombinant with luciferase (RSV-Luc5) (≥1×107 TCID50/ml) was purchased from Microbiologics (Saint Cloud, MN). Viral replication was determined in HEp-2 cells in the following manner.
as §1
The test compounds were spotted to 384-well assay plates (Greiner, Monroe, NC, Cat #781091) at 200 nL per well. HEp-2 cells were harvested and suspended in DMEM (supplemented with 10% FBS and 1× Penicillin-Streptomycin-L-Glutamine) and seeded to the pre-spotted assay plates at 4,000 cells per well in 30 μL. RSV-Luc5 viruses were diluted in DMEM (supplemented with 10% FBS and 1× Penicillin-Streptomycin-L-Glucamine) at 200,000 Infectious Units (IU) per mL and 10 μL per well was added to the assay plates containing cells and compounds, for an MOI=0.5. The assay plates were incubated for 3 days at 37° C. and 5% CO2. At the end of incubation, One-Glo reagent (Promega, Madison, WI, Cat #E6120) was prepared. The assay plates and One-Glo reagent were equilibrated to room temperature for at least 15 minutes. 40 μL per well of One-Glo reagent was added and the plates were incubated at room temp for 15 minutes before reading the luminescence signal on an EnVision multimode plate reader (Perkin Elmer, Waltham, MA). Remdesivir was used as positive control and DMSO was used as negative control. Values were normalized to the positive and negative controls (as 0% and 100% replication, respectively) and data was fitted using non-linear regression analysis by Gilead's dose response tool. The EC50 value for each compound was then determined as the concentration reducing the viral replication by 50%.

On to `CCCCCCCCCCCCCCCCCCOC[C@H](COP(=O)(O)OC[C@@]1(C#N)O[C@@H](c2ccc3c(N)ncnn23)[C@H](O)[C@@H]1O)Oc1ccc(C#N)nc1` [Compound 24], for which half-maximal cytotoxicity in data set [1] (CC50 at 3 days) was put at 937 nM. The concentration for a half-maximal effect (EC50) in data set [2] is 4 nM.

As to `CCCCCCCCCCCCCCCCCCC[C@H](COP(=O)(O)OC[C@@]1(C#N)O[C@@H](c2ccc3c(N)ncnn23)[C@H](O)[C@@H]1O)Oc1ccc(C#N)c(F)c1` [Compound 85, ((2R,3S,4R,5S)-5-(4-aminopyrrolo[2,1-f][1,2,4]triazin-7-yl)-2-cyano-3,4-dihydroxytetrahydrofuran-2-yl)methyl ((R)-2-(4-cyano-3-fluorophenoxy)henicosyl) hydrogen phosphate], the results for the cytotoxic concentration (CC50) at 3 days in data set [3] and in data set [1] were more than 50000 nM and 1440 nM, respectively. In addition, the concentration for a half-maximal effect (EC50) came out at 11 nM in data set [2] and 93 nM in data set [4].

With `CCCCCCCCCCCCCC[C@@H](COP(=O)(O)OC[C@@]1(C#N)O[C@@H](c2ccc3c(N)ncnn23)[C@H](O)[C@@H]1O)OCc1cc(F)cc(C#N)c1` [Compound 86, ((2R,3S,4R,5S)-5-(4-aminopyrrolo[2,1-f][1,2,4]triazin-7-yl)-2-cyano-3,4-dihydroxytetrahydrofuran-2-yl)methyl ((S)-2-((3-cyano-5-fluorobenzyl)oxy)hexadecyl) hydrogen phosphate], the CC50 at 3 days in data set [3] was more than 50000 nM; in data set [1], 2900 nM. Further, the half-maximal effective concentration (EC50) in data set [2] turned out to be 25 nM; in data set [4] it was 546 nM.

In the case of `CCCCCCCCCCCCCCCCCC[C@@H](COP(=O)(O)OC[C@@]1(C#N)O[C@@H](c2ccc3c(N)ncnn23)[C@H](O)[C@@H]1O)OCc1cc(Cl)cc(C#N)c1` [Compound 87, ((2R,3S,4R,5S)-5-(4-aminopyrrolo[2,1-f][1,2,4]triazin-7-yl)-2-cyano-3,4-dihydroxytetrahydrofuran-2-yl)methyl ((S)-2-((3-chloro-5-cyanobenzyl)oxy)icosyl) hydrogen phosphate], the cytotoxic concentration (CC50) at 3 days in data set [3] is more than 34800 nM; in data set [1], 3450 nM. For the same compound, the EC50 is 133 nM in data set [2] and 443 nM in data set [4].

With `CCCCCCCCCCCCCCCCOC[C@@H](COP(=O)(O)OC[C@@]1(C#N)O[C@@H](c2ccc3c(N)ncnn23)[C@H](O)[C@@H]1O)OCc1ccccc1` [Compound 92, ((2R,3S,4R,5S)-5-(4-aminopyrrolo[2,1-f][1,2,4]triazin-7-yl)-2-cyano-3,4-dihydroxytetrahydrofuran-2-yl)methyl ((S)-2-(benzyloxy)-3-(hexadecyloxy)propyl) hydrogen phosphate], the CC50 at 3 days in data set [3] was more than 50000 nM; in data set [1], 9560 nM. Also, the EC50 in data set [2] stood at 47 nM; in data set [4] it was 194 nM.

Regarding `CCCCCCCCCCCCCCCCCC[C@@H](COP(=O)(O)OC[C@@]1(C#N)O[C@@H](c2ccc3c(N)ncnn23)[C@H](O)[C@@H]1O)OCc1ccccc1` [Compound 93, ((2R,3S,4R,5S)-5-(4-aminopyrrolo[2,1-f][1,2,4]triazin-7-yl)-2-cyano-3,4-dihydroxytetrahydrofuran-2-yl)methyl ((S)-2-(benzyloxy)icosyl) hydrogen phosphate], the 50% cytotoxic concentration (CC50) at 3 days in data set [3] was more than 50000 nM; in data set [1], 8140 nM. Further, the concentration for a half-maximal effect (EC50) in data set [2] is 663 nM; in data set [4] it was 3060 nM.

In the case of `CCCCCCCCCCCCCCCCCCOC[C@](C)(COP(=O)(O)OC[C@@]1(C#N)O[C@@H](c2ccc3c(N)ncnn23)[C@H](O)[C@@H]1O)OCc1cc(F)cc(C#N)c1` [Compound 94, ((2R,3S,4R,5S)-5-(4-aminopyrrolo[2,1-f][1,2,4]triazin-7-yl)-2-cyano-3,4-dihydroxytetrahydrofuran-2-yl)methyl ((R)-2-((3-cyano-5-fluorobenzyl)oxy)-2-methyl-3-(octadecyloxy)propyl) hydrogen phosphate], the CC50 at 3 days is more than 50000 nM in data set [3] and 16000 nM in data set [1]. The concentration for a half-maximal effect (EC50) in data set [2] was 59 nM; in data set [4], 339 nM.

Consider `CCCCCCCCCCCCCCCCCC[C@@H](COP(=O)(O)OC[C@@]1(C#N)O[C@@H](c2ccc3c(N)ncnn23)[C@H](O)[C@@H]1O)Oc1cc(F)cc(C#N)c1` [Compound 96, ((2R,3S,4R,5S)-5-(4-aminopyrrolo[2,1-f][1,2,4]triazin-7-yl)-2-cyano-3,4-dihydroxytetrahydrofuran-2-yl)methyl ((S)-2-(3-cyano-5-fluorophenoxy)icosyl) hydrogen phosphate], for which the CC50 at 3 days in data set [3] was more than 38100 nM; in data set [1] it was 5240 nM. For the same compound, the EC50 in data set [2] was determined as 67 nM; in data set [4] it was 368 nM.

For `CCCCCCCCCCCCC[C@@H](COP(=O)(O)OC[C@@]1(C#N)O[C@@H](c2ccc3c(N)ncnn23)[C@H](O)[C@@H]1O)OCc1cc(F)cc(C#N)c1` [Compound 97, ((2R,3S,4R,5S)-5-(4-aminopyrrolo[2,1-f][1,2,4]triazin-7-yl)-2-cyano-3,4-dihydroxytetrahydrofuran-2-yl)methyl ((S)-2-((3-cyano-5-fluorobenzyl)oxy)pentadecyl) hydrogen phosphate], the CC50 at 3 days was more than 43900 nM in data set [3] (HEp-2 cells, 384-well, read-out: RSV HEP2-CC50-384-V2 (nM) (per Ex. V)) and 3910 nM in data set [1] (NHBE cells, 384-well, read-out: RSV NHBE CC50 384 V2 (nM) (per Ex. U)). The EC50 in data set [2] is 45 nM; in data set [4], 1490 nM.

Compound `CCCCCCCCCCCCCCCCOC[C@@H](COP(=O)(O)OC[C@@]1(C#N)O[C@@H](c2ccc3c(N)ncnn23)[C@H](O)[C@@H]1O)OCc1cc(Cl)cc(C#N)c1` [Compound 98, ((2R,3S,4R,5S)-5-(4-aminopyrrolo[2,1-f][1,2,4]triazin-7-yl)-2-cyano-3,4-dihydroxytetrahydrofuran-2-yl)methyl ((S)-2-((3-chloro-5-cyanobenzyl)oxy)-3-(hexadecyloxy)propyl) hydrogen phosphate] showed a half-maximal cytotoxic concentration (CC50) at 3 days in data set [1] of 2900 nM. In addition, the concentration giving a half-maximal response (EC50) in data set [2] was determined as 11 nM; in data set [4], 34 nM.

A word on the CC50: it is the concentration giving 50% cytotoxicity. The EC50 is the concentration giving half of the maximal effect.
